{"source": "patent EP0238198A2", "about": "“Method of modifying the lipid structure function and expression of cell membranes and pharmaceutical compositions for use therein” (Habib, Nagy Adly, priority 1986, dated 1987)", "key": {"[1]": {"tested_on": "Primary rat fibroblasts (from alveolar tissue)", "experiment": "colony inhibition test (clonogenic assay)", "format": "cell-based", "conditions": "for Mean no colonies ± SE: 5 days, medium control 55.0±4.6", "procedure": "(§1) Cells from rat mammary carcinoma (Sp 22), primary rat fibroblasts (from alveolar tissue) and four rat hepatoma cell lines (D23, D261, D262A and D262B) were studied.\nThe method used for rat cells was as follows: 200 cells were plated per dish in 1 ml 'Eagles' methionine enriched medium (MEM) + 10% newborn calf serum (NBCS) in 30 mm culture dishes and incubated for four hours at 37°C. […] Dilutions containing 20 µg/ml, […], 200 ng/ml and 2 ng/ml were prepared, 1 ml of each dilution was added to four dishes of cells, the final concentration being half the concentration of the material added. […] To control dishes 1 ml of MEM + NBCS was added, or 1 ml of MEM + NBCS + 1% ethanol. The dishes were incubated for 5 days. Medium was then removed, and the cell colonies were rinsed with 0.9% W/V NaCl solution and fixed for 15 minutes with methanol. Cell colonies were stained with 1% aqueous crystal violet and the dishes were allowed to dry."}, "[2]": {"tested_on": "833K (non-seminomatous testicular germ cell tumour)", "experiment": "tumour cell colony inhibition test (clonogenic assay)", "format": "cell-based, human", "procedure": "as §1\n(§2) The human tumour cell lines were investigated as follows: 500 exponentially-growing RTl12 (transitional cell carcinoma of the bladder) cells or two hundred 833K (non-seminomatous testicuLar.germ cell tumour) cells were plated in 5 cm dishes in RPMI1640 medium supplemented with 5% foetal calf serum and 2 mM 1-glutamine. […] Following a further 14 days incubation colonies were fixed, stained and counted. Colony-forming efficiency of the treated cells was expressed as a proportion of that in the controls. The experiments were repeated three times to permit statistical analysis."}, "[3]": {"tested_on": "RT112 (transitional cell carcinoma of the bladder)", "experiment": "tumour cell colony inhibition test (clonogenic assay)", "format": "cell-based, human", "procedure": "as §1, §2"}, "D262B Rat hepatoma": {"tested_on": "D262B Rat hepatoma", "experiment": "tumour cell colony inhibition test (clonogenic assay)", "format": "cell-based"}, "malignant cells": {"tested_on": "malignant cells", "experiment": "tumour development in animals implanted with malignant cells", "format": "in vivo"}, "mammary carcinoma": {"tested_on": "mammary carcinoma", "experiment": "NMU-induced mammary carcinoma in rats, Example 1", "format": "in vivo, female Sprague-Dawley rats", "procedure": "NMU was administered intravenously to thirty female Sprague-Dawley rats weighing approximately 200g. It has been well established that with this animal model breast cancers will develop in the majority by 12 weeks from the commencement of the giving of the carcinogen (Gullino, P.M., Pettigrew, H.M., and Grantham, E.H., I. National Cancer Inst. 1975, 54, 401-409). The rats were divided into two groups, with those of the first group (twenty rats) receiving NMU alone, and those of the second group (ten rats) receiving NMU plus stearic acid. NMU in 3% acetic acid was dissolved in distilled water (20mg/ml) and was given in three intravenous injections of 5mg/100g body weight at weeks 1, 4 and 8. […] The onset of tumours was monitored by daily inspection and by palpation of the mammary regions twice weekly. At week 22, all surviving animals were sacrificed, and autopsies were performed. The tumours located thereby were dissected and examined histologically. In the control animals who were given carcinogen alone 19 out of the 20 animals had developed breast cancers by week 16 of the experiment, with a mean latent period of 72 days. […] The range of tumour weight/rat was 5g to 47.8g with a mean value of 23.6g per rat (excluding the tumour free animal). […] These five rats had seven tumours in all, with a mean of 1.4 tumours per rat (p less than 0.001 compared to the control group). The range of tumour weight/rat was 4.2g to 21.2g, with an average of 16.4g/rat (p less than 0.01 compared to the control group). […] Of the remaining 8 live rats from this group which were killed at week 22, only three had tumours, the other five being tumour-free."}, "D23 Rat hepatoma": {"tested_on": "D23 Rat hepatoma", "experiment": "tumour cell colony inhibition test (clonogenic assay)", "format": "cell-based", "parameters": "inhibition of colony formation: dose or concentration left out as unconfirmed", "conditions": "for Mean no colonies ± SE: 5 days, medium control 41.8±3.5", "procedure": "as §1\nThe method used for rat cells was as follows: 200 cells were plated per dish in 1 ml 'Eagles' methionine enriched medium (MEM) + 10% newborn calf serum (NBCS) in 30 mm culture dishes and incubated for four hours at 37°C. All became firmly adherent during this initial incubation. […] To control dishes 1 ml of MEM + NBCS was added, or 1 ml of MEM + NBCS + 1% ethanol. The dishes were incubated for 5 days. Medium was then removed, and the cell colonies were rinsed with 0.9% W/V NaCl solution and fixed for 15 minutes with methanol. Cell colonies were stained with 1% aqueous crystal violet and the dishes were allowed to dry."}, "[4]": {"conditions": "Rattus norvegicus, Fibroblast, 120 h, read-out: % colony formation relative to medium control"}, "[5]": {"conditions": "Homo sapiens, 833K, 336 h, read-out: Colony-forming ability (± standard error)"}, "[6]": {"conditions": "summary of Table 3, dose-related response"}, "[7]": {"conditions": "Homo sapiens, RT-112, 336 h, read-out: Colony-forming ability (± standard error)"}, "[8]": {"conditions": "Rattus norvegicus, 120 h, read-out: % colony formation relative to medium control"}, "[9]": {"conditions": "NMU plus stearic acid 10mg s.c. weekly"}}, "data": [{"molecule": "CCCCCCCCCCCCCCCCCC(=O)O", "note": "[stearic acid, octadecanoic acid]", "values": [{"measurement": "activity at 0.001 µg/mL", "setting": "[1]; [4]", "result": 90, "unit": "%"}, {"measurement": "activity at 0.01 µg/mL", "setting": "[1]; [4]", "result": 108, "unit": "%"}, {"measurement": "activity at 0.1 µg/mL", "setting": "[1]; [4]", "result": 85.8, "unit": "%"}, {"measurement": "activity at 1 µg/mL", "setting": "[1]; [4]", "result": 88.2, "unit": "%"}, {"measurement": "activity at 10 µg/mL", "setting": "[1]; [4]", "result": 96.5, "unit": "%"}, {"measurement": "activity at 50 µg/mL", "setting": "[1]; [4]", "result": 86.4, "unit": "%"}, {"measurement": "Mean no colonies ± SE", "setting": "[1]; stearic acid 1ng/ml", "result": "49.5±9.5"}, {"measurement": "Mean no colonies ± SE", "setting": "[1]; stearic acid 100 ng/ml", "result": "47.2±9.4"}, {"measurement": "Mean no colonies ± SE", "setting": "[1]; stearic acid 1µg/ml", "result": "48.5±9.2"}, {"measurement": "Mean no colonies ± SE", "setting": "[1]; stearic acid 10 µg/ml", "result": "52.0±7.7"}, {"measurement": "Mean no colonies ± SE", "setting": "[1]; stearic acid 50 µg/ml", "result": "47.5±6.0"}, {"measurement": "inhibition of colony development", "setting": "[1]; summary of Table 2", "result": "failed to inhibit"}, {"measurement": "activity at 1 µg/mL", "setting": "[2]; [5]", "result": 81.5, "unit": "%"}, {"measurement": "activity at 2 µg/mL", "setting": "[2]; [5]", "result": 70.4, "unit": "%"}, {"measurement": "activity at 4 µg/mL", "setting": "[2]; [5]", "result": 27.5, "unit": "%"}, {"measurement": "activity at 6 µg/mL", "setting": "[2]; [5]", "result": 0.9, "unit": "%"}, {"measurement": "activity at 8 µg/mL", "setting": "[2]; [5]", "result": 0, "unit": "%"}, {"measurement": "activity at 10 µg/mL", "setting": "[2]; [5]", "result": 0, "unit": "%"}, {"measurement": "inhibition of colony formation", "setting": "[2]; [6]", "result": "inhibited colony formation"}, {"measurement": "activity at 1 µg/mL", "setting": "[3]; [7]", "result": 92, "unit": "%"}, {"measurement": "activity at 2 µg/mL", "setting": "[3]; [7]", "result": 86, "unit": "%"}, {"measurement": "activity at 4 µg/mL", "setting": "[3]; [7]", "result": 45, "unit": "%"}, {"measurement": "activity at 6 µg/mL", "setting": "[3]; [7]", "result": 4.6, "unit": "%"}, {"measurement": "activity at 8 µg/mL", "setting": "[3]; [7]", "result": 0.3, "unit": "%"}, {"measurement": "activity at 10 µg/mL", "setting": "[3]; [7]", "result": 0, "unit": "%"}, {"measurement": "inhibition of colony formation", "setting": "[3]; [6]", "result": "inhibited colony formation"}, {"measurement": "activity at 0.01 µg/mL", "setting": "D262B Rat hepatoma; [8]", "result": 109, "unit": "%"}, {"measurement": "Mean no colonies ± SE", "setting": "D262B Rat hepatoma; stearic acid 10ng/ml, 5 days, medium control 37.0± 4.0", "result": "40.3± 1.8"}, {"measurement": "development of tumours", "setting": "malignant cells", "result": "inhibits the development of tumours"}, {"measurement": "animals that had developed mammary tumours by week 16", "setting": "mammary carcinoma; NMU plus stearic acid 10mg in liquid paraffin s.c. weekly from second week, ten rats, NMU alone 19 out of 20", "result": "five of the original ten"}, {"measurement": "rats with tumours among the 8 live rats killed at week 22", "setting": "mammary carcinoma; [9]", "result": "three"}, {"measurement": "tumour-free rats among the 8 live rats killed at week 22", "setting": "mammary carcinoma; [9]", "result": "five"}, {"measurement": "mean tumours per rat", "setting": "mammary carcinoma; NMU plus stearic acid 10mg s.c. weekly, NMU alone 2.68, p less than 0.001", "result": 1.4, "unit": "tumours per rat"}, {"measurement": "average tumour weight", "setting": "mammary carcinoma; NMU plus stearic acid 10mg s.c. weekly, NMU alone 23.6g per rat, p less than 0.01", "result": 16.4, "unit": "g/rat"}, {"measurement": "mean latent period", "setting": "mammary carcinoma; NMU plus stearic acid 10mg s.c. weekly, NMU alone 72 days", "result": 74, "unit": "days"}, {"measurement": "rats that had died by week 22", "setting": "mammary carcinoma; NMU plus stearic acid 10mg s.c. weekly, of ten rats, NMU alone all 19 with tumours died", "result": 2}, {"measurement": "inhibition of colony formation", "setting": "D23 Rat hepatoma", "result": "significant inhibition of colony formation"}, {"measurement": "activity at 0.01 µg/mL", "setting": "D23 Rat hepatoma; [8]", "result": 101, "unit": "%"}, {"measurement": "activity at 0.1 µg/mL", "setting": "D23 Rat hepatoma; [8]", "result": 88.5, "unit": "%"}, {"measurement": "activity at 1 µg/mL", "setting": "D23 Rat hepatoma; [8]", "result": 67, "unit": "%"}, {"measurement": "activity at 10 µg/mL", "setting": "D23 Rat hepatoma; [8]", "result": 67, "unit": "%"}, {"measurement": "activity at 50 µg/mL", "setting": "D23 Rat hepatoma; [8]", "result": 23, "unit": "%"}, {"measurement": "Mean no colonies ± SE", "setting": "D23 Rat hepatoma; stearic acid 10ng/ml", "result": "42.3±1.6"}, {"measurement": "Mean no colonies ± SE", "setting": "D23 Rat hepatoma; stearic acid 100 ng/ml", "result": "37.0±1.5"}, {"measurement": "Mean no colonies ± SE", "setting": "D23 Rat hepatoma; stearic acid 1μg/ml", "result": "28.0±1.5"}, {"measurement": "Mean no colonies ± SE", "setting": "D23 Rat hepatoma; stearic acid 10 μg/ml", "result": "28.0±2.9"}, {"measurement": "Mean no colonies ± SE", "setting": "D23 Rat hepatoma; stearic acid 50 μg/ml", "result": "10.0±2.6"}]}]}
